Measurements: PMC8602723, “Comparative assessment of antimicrobial, antiradical and cytotoxic activities of cannabidiol and its propyl analogue cannabidivarin” (Scientific Reports, 2021)
Read-outs that look alike come from different tables or passages of the source.

Legend:
TelCOFS02MA cells [1] = test: LDH assay (plasma membrane damage); assay type: cell-based, human; settings: for IC50: Homo sapiens, read-out: IC50 LDH assay
Experimental: LDH assay is a high-throughput method based on the release of the LDH cytoplasmic enzyme from the cytosol into the extracellular space when the plasma membrane is damaged[29],[30]. Plasma membrane damage related to the amount of lysed cells was monitored by LDH assay, and the results were used for indirectly detecting the necrosis correlated to the leakage of the cytosolic enzyme due the loss of membrane permeability control[29],[30]. This assay was performed with the protocol described by Lehmann and colleagues.
Briefly, 1 × 10^4 A549 and Caco-2 cells and 2 × 10^4 HepG2, MDA-MB-231 and TelCOFS02MA cells were seeded in 100 µL of 1% FBS-fresh medium in each well of 96-well plates and incubated for 24 h at 37 °C with 95% humidity and 5% CO2. Then, the medium was removed and replaced with 100 µL of medium with different concentrations of CBD and CBDV, which were chosen on the basis of range-finding tests (as previously indicated). The plates were incubated at 37 °C for 72 h. In all experiments, the background control (wells with medium and without cells to obtain information about the LDH activity in the assay medium), low control (wells containing cells exposed only to the medium to determine spontaneous LDH release), high control (wells containing cells exposed to 2% Triton-X100 for 10 min before performing the assay to determine maximum LDH release), and solvent controls (2.5% methanol) were included. One hundred microlitres of supernatant was removed carefully from each well and transferred into corresponding wells in optically clear 96-well flat bottom microplates. One hundred microlitres of freshly prepared reaction mixture (Diaphorase (Catalyst)/NAD^+ /INT/sodium lactate) was added to each well and incubated for 30 min at 20 °C in darkness. Thus, NAD^+ was reduced to NADH/H^+ by the LDH-catalysed conversion of lactate to pyruvate. Then, the catalyst transferred H/H^+ from NADH/H^+ to the tetrazolium salt INT, which was reduced to formazan. To arrest the reaction, 50 µL/well of 1 N HCl was added. The spectrophotometric absorbance was determined at 492 nm. The absorbance of the background control wells was subtracted from all other values.
The results are reported as percentages of cytotoxicity, which is linked to the percentage of LDH released from damaged plasma membranes, calculated as follows:3 IC%=OD492sample-OD492lowcontrol/OD492highcontrol-OD492lowcontrol·100
IC50 values (concentrations of the sample to obtain 50% cytotoxicity) were calculated.
All results from five independent experiments are expressed as the IC50 or EC50 as determined by analysis with Prism 5 software (GraphPad Inc., San Diego, CA, USA) and nonlinear regression (log agonist vs. normalized response-variable slope) with a 95% confidence range. […]

MDA-MB-231 cells = test: MTT assay (mitochondrial metabolism); assay type: cell-based, human; settings: for IC50: Homo sapiens, read-out: IC50 MTT assay
Excerpt: (§1) MTT assay is the most commonly used method for high-throughput identification of the antiproliferative effects of compounds on cultured cells and is indirectly correlated with mitochondria-dependent apoptosis progression[59]–[61]. The production of reducing equivalents such as NADH in metabolically active cells is an indicator of “cell redox activity”, indirectly reflecting the number of viable cells[60],[61] and the mitochondrial metabolic rate in cells[62],[63].
(§2) A549, Caco-2, HepG2 and TelCOFS02MA cells (1 × 10^4 cells/well), and MDA-MB-231 cells (0.5 × 10^4 cells/well) were seeded in 100 µL of fresh medium into 96-well plates (TC-Plate 96 wells, Sarstedt, Verona, Italy) in quadruplicate for 24 h at 37 °C in a humidified atmosphere of 95% air plus 5% CO2. Then, the medium was removed and replaced with 200 µL of media with different concentrations of CBD (5–80 µM, dilution factor [DF] equal to 2) and CBDV (5.5–88 µM, DF = 2) chosen on the basis of range-finding tests (0.5, 5, and 50 mg/L). We chose 1.56–25 mg/L to be tested and, to make easier the comparison between the two cannabinoids activities, the concentrations were reported in [μM]. In all experiments, negative controls (wells containing cells exposed only to the medium) and solvent controls (wells containing cells exposed to 2.5% methanol) were included. The plates were incubated at 37 °C for three exposure times: 24, 48 and 72 h (different plates were prepared for each specific time point). Then, MTT solution (5 mg/mL) was added to each well, and the plates were re-incubated for 4 h at 37 °C. The culture medium was removed, and 2-propanol was used to dissolve formazan crystals. The absorbance of formazan was measured spectrophotometrically at 590 nm using an automated microplate reader (Synergy H1, Biotek, Winooski, USA). The results are reported as the percentages of cells with inhibited proliferation, as determined by the link between the inhibition of mitochondrial metabolic activity and proliferation. The results were calculated with the following formula:1 IC%=1-OD590sample/OD590negativecontrol·100
(§3) Furthermore, IC50 values (concentrations of the sample used to obtain an inhibition of 50% of cell growth/metabolic activity) were calculated.
(§4) All results from five independent experiments are expressed as the IC50 or EC50 as determined by analysis with Prism 5 software (GraphPad Inc., San Diego, CA, USA) and nonlinear regression (log agonist vs. normalized response-variable slope) with a 95% confidence range. Lowest observed adverse effect concentrations (LOAECs) were calculated by one-way ANOVA and Dunnett’s comparison test. Differences compared to the controls were considered significant as follows: *p < 0.05, **p < 0.001 and ***p < 0.0001.

Caco-2 cells = test: MTT assay (mitochondrial metabolism); assay type: cell-based, human; settings: for LOAEC MTT assay: Caco-2, same value after each exposure time (24, 48, 72 h); for IC50: Homo sapiens, read-out: IC50 MTT assay
Excerpt: as §1, §2, §3, §4

TelCOFS02MA cells [2] = test: MTT assay (mitochondrial metabolism); assay type: cell-based, human; settings: for IC50: Homo sapiens, read-out: IC50 MTT assay
Excerpt: as §1, §2, §3, §4

S. aureus = tested on: S. aureus; parameters: method as in PMID 33469147; settings: S. aureus exposed at 6–14 µM; cited from earlier work
[3] = ABTS assay (radical scavenging); settings: for TEAC (Trolox equivalent antioxidant capacity), ABTS: EC50 Trolox/EC50 sample; for ABTS scavenging capacity less than the capacity of Trolox: compared with Trolox
Experimental: An ABTS assay was performed following the procedure described by Lavorgna et al. 2019[66]. The cationic ABTS radical (ABTS^+) was generated by oxidizing ABTS (7 mM) with potassium persulfate (140 mM K2S2O8), and the mixture was incubated for 12–16 h in the dark. The ABTS^+ working solution was diluted to an absorbance of […] OD at 734 nm. […] Distilled water was used for the blank, Trolox was used for the standard control, and methanol was used for the solvent control.
The results are expressed as the median effective concentration (EC50). Furthermore, Trolox equivalent antioxidant capacity (TEAC) values were calculated following the procedure used by Shimamura end colleagues[68]:5 TEAC=EC50Trolox/EC50sample
as §4

[4] = tested on: SZ95, normal-like sebocytes; parameters: method as in PMID 27094344; settings: 24 h of treatment; cited from earlier work
[5] = TelCOFS02MA, 72 h exposure, 95% confidence interval in brackets

In the case of `C=C(C)[C@@H]1CCC(C)=C[C@H]1c1c(O)cc(CCCCC)cc1O` [CBD, Cannabidiol], the IC50 (TelCOFS02MA cells [1]; [5]) is reported as 118 µM, the “LOAEC LDH assay” value (TelCOFS02MA cells [1]; TelCOFS02MA, 72 h) is reported as 80 µM and the IC50 (MDA-MB-231 cells; MDA-MB-231, 72 h exposure, 95% confidence interval in brackets) is reported as 25.8 µM. The “LOAEC MTT assay” value (MDA-MB-231 cells; MDA-MB-231, 24 h) was 20 µM, the “LOAEC MTT assay” value (MDA-MB-231 cells; MDA-MB-231, 48 h) was 10 µM and the “LOAEC MTT assay” value (Caco-2 cells) was 20 µM. The IC50 (Caco-2 cells; Caco-2, 72 h exposure, 95% confidence interval in brackets) was 35.2 µM, the IC50 (TelCOFS02MA cells [2]; [5]) was 31.9 µM and the “LOAEC MTT assay” value (TelCOFS02MA cells [2]; TelCOFS02MA, same value for the entire treatment period (24, 48, 72 h)) was 20 µM. For the same compound, the “protein, DNA, RNA and peptidoglycan synthesis” value (S. aureus) was “inhibited”, the “TEAC (Trolox equivalent antioxidant capacity), ABTS” value [3] was 0.21 and the “ABTS scavenging capacity less than the capacity of Trolox” value [3] was 79%.
With `C=C(C)[C@@H]1CCC(C)=C[C@H]1c1c(O)cc(CCC)cc1O` [CBDV, cannabidivarin] the IC50 (TelCOFS02MA cells [1]; 72 h) was 152 µM, the “LOAEC LDH assay” value (TelCOFS02MA cells [1]; TelCOFS02MA, 72 h) was 88 µM and the IC50 (MDA-MB-231 cells; MDA-MB-231, 72 h) was 38.1 µM. The “LOAEC MTT assay” value (MDA-MB-231 cells; MDA-MB-231, 24 h) was 44 µM, the “LOAEC MTT assay” value (MDA-MB-231 cells; MDA-MB-231, 48 h) was 22 µM and the “LOAEC MTT assay” value (Caco-2 cells) was 44 µM. The IC50 (Caco-2 cells; Caco-2, 72 h) was 46 µM, the IC50 (TelCOFS02MA cells [2]; 72 h) was 42.3 µM and the “LOAEC MTT assay” value (TelCOFS02MA cells [2]; TelCOFS02MA, 24 h) was 88 µM. The “LOAEC MTT assay” value (TelCOFS02MA cells [2]; TelCOFS02MA, 48 h) was 44 µM, the “LOAEC MTT assay” value (TelCOFS02MA cells [2]; TelCOFS02MA, 72 h) was 11 µM and the “TEAC (Trolox equivalent antioxidant capacity), ABTS” value [3] was 0.27. The “ABTS scavenging capacity less than the capacity of Trolox” value [3] was 73% and the “concentration giving a significant decrease in cell viability (MTT)” value [4] was 100 nM.
